Measurements taken from PMC3644566 (Journal of chemical information and modeling, 2013).

How the values were obtained:
[1] = system: P. falciparum 3D7 or K1 strains; test: P. falciparum growth inhibition assays of VS hits; assay type: cell-based, Plasmodium falciparum; conditions: against either 3D7 or K1 strains, most potent VS hit
[2] = system: P. falciparum 3D7 strain; test: P. falciparum growth inhibition assay; assay type: cell-based; conditions: Plasmodium falciparum, 3D7, 72 h, read-out: consensus EC50

Structure (SMILES) | EC50 [1] | EC50 [2]
C=CC1CN2CCC1CC2C(OC(=O)C1CC1)c1ccnc2ccccc12 (stereo not drawn) [SJ000565000] | 0.0956 µM | –
CCN(CC)CCCC(C)Nc1ccnc2cc(Cl)ccc12 (stereo not drawn) [chloroquine] | – | 0.0268 µM
OC(c1cc(C(F)(F)F)nc2c(C(F)(F)F)cccc12)C1CCCCN1 (stereo not drawn) [mefloquine] | – | 0.0398 µM
